Measured values from patent US9499495B2, “Quinazolines and azaquinazolines as dual inhibitors of RAS/RAF/MEK/ERK and PI3K/AKT/PTEN/mTOR pathways” (Asana Biosciences, LLC, priority 2013, dated 2016).

What was measured:
pERK in A375 cells = test: In Cell Western (ICW) assay, pERK in A375 cells; format: cell-based; details: Homo sapiens, A-375, 3 h treatment
Method in brief: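 RKO or A375 cells were exposed to compounds for 3 h at 37 °C, then fixed and stained in-cell with antibodies to pERK1/2 (T202/Y204), pS6RP or pAKT T308, followed by a Eu-labelled secondary. Time-resolved fluorescence (340/615 nm) was normalized to Hoechst, and IC50 values were fitted sigmoidally against DMSO as 0% inhibition.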

PI3Kα = molecular target: T1, PI3Kα (Homo sapiens, UniProt P42336); test: PI3 Kinase alpha TR-FRET assay; format: biochemical
T1 construct: made in house; host or cells: SF9 cells
T1 sequence (P42336 whole entry, species assumed): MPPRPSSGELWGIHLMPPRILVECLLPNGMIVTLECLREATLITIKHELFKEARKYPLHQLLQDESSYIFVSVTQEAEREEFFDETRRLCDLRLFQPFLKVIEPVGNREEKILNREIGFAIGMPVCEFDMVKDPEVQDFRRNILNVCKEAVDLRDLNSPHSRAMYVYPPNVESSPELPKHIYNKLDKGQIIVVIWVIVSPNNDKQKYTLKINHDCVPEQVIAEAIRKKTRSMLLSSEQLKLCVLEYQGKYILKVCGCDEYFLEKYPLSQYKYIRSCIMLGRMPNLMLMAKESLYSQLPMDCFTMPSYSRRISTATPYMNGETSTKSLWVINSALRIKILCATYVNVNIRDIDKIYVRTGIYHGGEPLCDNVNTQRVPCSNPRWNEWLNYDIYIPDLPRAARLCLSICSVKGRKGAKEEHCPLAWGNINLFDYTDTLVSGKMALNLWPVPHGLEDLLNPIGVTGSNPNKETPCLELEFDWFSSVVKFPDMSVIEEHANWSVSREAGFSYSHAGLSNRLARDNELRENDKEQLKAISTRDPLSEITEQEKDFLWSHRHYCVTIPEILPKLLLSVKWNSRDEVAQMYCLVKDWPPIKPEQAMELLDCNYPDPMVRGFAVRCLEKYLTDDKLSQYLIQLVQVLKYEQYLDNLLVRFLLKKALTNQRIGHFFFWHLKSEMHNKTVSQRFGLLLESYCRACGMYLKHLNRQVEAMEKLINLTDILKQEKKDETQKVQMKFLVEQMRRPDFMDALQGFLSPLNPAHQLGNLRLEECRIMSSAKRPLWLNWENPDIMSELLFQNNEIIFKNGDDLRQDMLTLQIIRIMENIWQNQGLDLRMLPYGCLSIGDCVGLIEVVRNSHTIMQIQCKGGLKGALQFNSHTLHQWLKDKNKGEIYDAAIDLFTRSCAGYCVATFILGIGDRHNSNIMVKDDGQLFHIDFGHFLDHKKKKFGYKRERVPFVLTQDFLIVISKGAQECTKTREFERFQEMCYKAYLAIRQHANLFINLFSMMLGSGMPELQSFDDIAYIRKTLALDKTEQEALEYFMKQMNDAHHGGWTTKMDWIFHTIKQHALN
T1 sequence (P27986 whole entry partner, species assumed): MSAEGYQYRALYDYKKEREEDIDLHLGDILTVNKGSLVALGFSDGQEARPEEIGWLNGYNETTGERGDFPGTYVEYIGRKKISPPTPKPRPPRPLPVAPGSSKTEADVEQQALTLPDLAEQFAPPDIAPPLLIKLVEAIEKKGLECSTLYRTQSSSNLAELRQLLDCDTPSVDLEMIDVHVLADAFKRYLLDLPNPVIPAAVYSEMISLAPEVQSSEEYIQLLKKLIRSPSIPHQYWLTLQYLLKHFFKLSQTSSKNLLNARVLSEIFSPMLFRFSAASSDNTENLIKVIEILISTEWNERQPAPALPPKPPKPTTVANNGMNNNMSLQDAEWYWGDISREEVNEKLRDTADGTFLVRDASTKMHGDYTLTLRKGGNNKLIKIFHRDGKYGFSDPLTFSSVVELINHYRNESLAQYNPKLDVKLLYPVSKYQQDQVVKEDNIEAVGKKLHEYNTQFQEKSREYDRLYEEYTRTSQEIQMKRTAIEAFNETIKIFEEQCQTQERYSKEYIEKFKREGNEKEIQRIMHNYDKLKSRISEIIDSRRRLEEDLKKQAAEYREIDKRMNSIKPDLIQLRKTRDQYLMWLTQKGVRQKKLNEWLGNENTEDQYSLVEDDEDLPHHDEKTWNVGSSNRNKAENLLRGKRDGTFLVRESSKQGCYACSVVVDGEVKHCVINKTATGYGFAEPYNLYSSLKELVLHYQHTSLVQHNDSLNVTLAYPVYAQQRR
Method: Compound inhibition for PI3Kα was determined in a homogeneous TR-FRET assay using a PI3Kα assay kit (Millipore, US, Catalog #33-016). The PI3 kinase catalyzes phosphorylation of […] (PIP2) to phosphatidylinositol 3,4,5-trisphosphate (PIP3) in the presence of ATP and Mg^2+. The PIP3 product is detected by displacement of biotin-PIP3 from an energy transfer complex consisting of Europium labeled anti-GST monoclonal antibody, a GST-tagged pleckstrin homology (PH) domain, biotinylated PIP3 and Streptavidin-Allophycocyanin (APC). Excitation of Europium in the complex results in an energy transfer to the APC and a fluorescence emission at 665 nm.
Compounds tested were dissolved in DMSO and directly distributed into 384-well plates at a volume of 0.5 μL. P110/P85a/PIP2 mixture (14.5 μL) was added to compound wells and incubated for 30 min at rt […]. P110/P85a was expressed in SF9 cells and purified in-house. 5 ng P110/P85a was used in the assay. The kinase reaction was started by the addition of ATP. The assay concentrations of both PIP2 and ATP were 40 μM. The reaction mixture was incubated for 30 min and was terminated by the addition of stop mix and detection mix. Fluorescence was measured at 615 and 665 nm upon excitation at 340 nm in a Victor V5 fluorometer (Perkin Elmer, US). The fluorescence emission ratio at 665 to 615 nm, proportional to the kinase activity, was plotted against the compound concentration to generate dose-response curves and IC50 values were determined.

B-RAFV600E = molecular target: T2, B-RAFV600E (Homo sapiens, UniProt P15056, V600E); test: B-RAFV600E radiometric assay; format: biochemical; details: read-out: Kinase assay B-Raf
T2 construct: purchased Millipore, USA 14-557
T2 sequence (P15056 416-766 V600E limits assumed): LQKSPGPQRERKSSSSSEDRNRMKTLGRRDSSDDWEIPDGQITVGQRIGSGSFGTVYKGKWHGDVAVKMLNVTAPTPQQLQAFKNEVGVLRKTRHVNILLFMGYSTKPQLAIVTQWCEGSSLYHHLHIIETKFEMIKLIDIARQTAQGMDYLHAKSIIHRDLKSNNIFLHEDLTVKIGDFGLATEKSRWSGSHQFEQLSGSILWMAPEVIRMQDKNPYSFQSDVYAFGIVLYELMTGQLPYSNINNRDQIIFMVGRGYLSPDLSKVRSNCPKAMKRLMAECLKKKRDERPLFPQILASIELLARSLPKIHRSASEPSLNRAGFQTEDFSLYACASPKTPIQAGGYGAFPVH
Method in brief: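 B-RAFV600E was preincubated 45 min at rt with compound in 1% DMSO. MEK-K97M (0.5 μg), 5 μM final cold ATP and [γ-32P]ATP were then added for 2 h at rt. Phosphorylated MEK was captured on P81 paper and scintillation-counted; IC50 came from a sigmoidal dose-response fit.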

mTOR kinase = molecular target: T3, mTOR kinase (Homo sapiens, UniProt P42345); test: mTOR kinase TR-FRET assay; format: biochemical
T3 construct: purchased Millipore, US
T3 sequence (P42345 1362-2549 limits assumed): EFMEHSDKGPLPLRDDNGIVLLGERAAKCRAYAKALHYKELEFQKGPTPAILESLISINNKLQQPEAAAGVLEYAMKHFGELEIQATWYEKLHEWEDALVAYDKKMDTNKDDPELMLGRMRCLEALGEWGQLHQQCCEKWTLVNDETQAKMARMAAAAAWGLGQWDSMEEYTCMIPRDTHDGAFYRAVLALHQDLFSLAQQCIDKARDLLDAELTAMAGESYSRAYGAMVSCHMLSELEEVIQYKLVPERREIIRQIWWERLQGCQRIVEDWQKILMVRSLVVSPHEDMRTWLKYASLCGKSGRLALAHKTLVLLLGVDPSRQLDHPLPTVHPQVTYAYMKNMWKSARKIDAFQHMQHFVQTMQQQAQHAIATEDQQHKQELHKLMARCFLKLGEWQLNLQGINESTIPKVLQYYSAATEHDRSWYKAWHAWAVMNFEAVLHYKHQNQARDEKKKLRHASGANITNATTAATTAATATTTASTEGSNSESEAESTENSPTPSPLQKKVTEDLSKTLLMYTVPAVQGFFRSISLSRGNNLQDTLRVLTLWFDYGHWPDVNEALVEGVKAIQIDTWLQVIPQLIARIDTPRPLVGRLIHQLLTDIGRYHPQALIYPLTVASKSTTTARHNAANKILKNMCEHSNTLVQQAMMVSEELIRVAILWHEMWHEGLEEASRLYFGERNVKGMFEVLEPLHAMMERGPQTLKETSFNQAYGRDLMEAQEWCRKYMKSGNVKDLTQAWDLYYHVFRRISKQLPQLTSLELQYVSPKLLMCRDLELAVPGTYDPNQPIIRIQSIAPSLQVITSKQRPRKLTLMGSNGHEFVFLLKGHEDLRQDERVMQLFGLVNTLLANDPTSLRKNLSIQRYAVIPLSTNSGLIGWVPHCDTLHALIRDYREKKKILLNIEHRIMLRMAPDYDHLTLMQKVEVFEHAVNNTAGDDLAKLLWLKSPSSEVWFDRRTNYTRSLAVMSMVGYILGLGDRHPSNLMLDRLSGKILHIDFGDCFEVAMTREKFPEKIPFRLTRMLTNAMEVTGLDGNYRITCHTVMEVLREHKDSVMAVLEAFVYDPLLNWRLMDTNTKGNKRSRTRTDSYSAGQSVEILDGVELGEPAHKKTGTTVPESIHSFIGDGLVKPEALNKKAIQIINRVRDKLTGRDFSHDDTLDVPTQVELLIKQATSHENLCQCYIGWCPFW
Method in brief: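 TR-FRET with ULight-p70 S6K (Thr 389) peptide (50 nM) and 20 μM ATP in 50 mM HEPES pH 7.5, 1 mM EGTA, 3 mM MnCl2; compound pre-incubated with enzyme before substrate addition, reaction at rt, EDTA-stopped. Eu anti-phospho antibody read 665/615 nm; IC50 from sigmoidal dose-response fit.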

A375 cells = test: XTT assay for cell viability, A375 cells; format: cell-based; details: Homo sapiens, A-375, 72 h
Method: Cell lines (A375 ATCC No. CRL-1619, A2058 ATCC No. CRL-11147 and RKO ATCC No. CRL-2577, American Type Culture Collection (ATCC), Manassas Va.) once attaining ˜80% confluency were trypsinized, centrifuged and resuspended in fresh media. Cells (1000-2000/per well) were seeded in 96-well plate and incubated over-night at 37° C. in a 5% CO2 incubator. Compound dilutions were prepared in 100% DMSO followed by dilutions in the respective media. The cells were treated with NCEs for 72 h at 37° C. in 5% CO2 incubator. After 72 h, freshly prepared XTT (1 mg/ml)/PMS (25 μM) solution was added, incubated for 2 to 3 h at 37° C. and the absorbance was measured at 450 nm using an ELISA plate reader. Keeping DMSO control as 100%, the effect of the compound to inhibit the cell proliferation was calculated and the GI50 values were determined using sigmoidal dose response curve fit in GraphPad Prism® v5 software.

SMILES | IC50 (pERK in A375 cells) | IC50 (PI3Kα) | IC50 (B-RAFV600E) | IC50 (mTOR kinase) | IC50 (A375 cells)
CCCS(=O)(=O)Nc1cccc(-c2cc(OC)c3nc(-c4cnc(N)cc4C(F)(F)F)nc(N4CCOCC4)c3c2)c1F [Example 25, N-(3-(2-(6-amino-4-(trifluoromethyl)pyridin-3-yl)-8-methoxy-4-morpholinoquinazolin-6-yl)-2-fluorophenyl)propane-1-sulfonamide] | 100 to 1000 nM | 100 to 1000 nM | 100 to 1000 nM | – | –
CCCS(=O)(=O)Nc1cccc(-c2cc(OC)c3nc(-c4cnc(N)c(Cl)c4)nc(N4CCOCC4)c3c2)c1F [Example 48, N-(3-(2-(6-amino-5-chloropyridin-3-yl)-8-methoxy-4-morpholinoquinazolin-6-yl)-2-fluorophenyl)propane-1-sulfonamide] | – | 100 to 1000 nM | 1 to 100 nM | – | –
NCCOc1cc(-c2cccc(NS(=O)(=O)CCCF)c2F)cc2c(N3CCOCC3)nc(-c3ccc(N)nc3)nc12 [Example 56, N-(3-(8-(2-aminoethoxy)-2-(6-aminopyridtn-3-yl)-4-morpholinoquinazolin-6-yl)-2-fluorophenyl)-3-fluoropropane-1-sulfonamide] | 1 to 100 nM | 100 to 1000 nM | 1 to 100 nM | 1 to 100 nM | –
CCCS(=O)(=O)Nc1ccc(Cl)c(-c2cc(OC)c3nc(-c4ccc(N)nc4)nc(N4CCOCC4)c3c2)c1F [Example 80, N-(3-(2-(6-aminopyridin-3-yl)-8-methoxy-4-morpholinoquinazolin-6-yl)-4-chloro-2-fluorophenyl)propane-1-sulfonamide] | 100 to 1000 nM | – | 1 to 100 nM | 100 to 1000 nM | 100 to 1000 nM
COc1cc(-c2c(F)ccc(NS(=O)(=O)CCCF)c2F)cc2c(N3CCOCC3)nc(-c3cnc(N)nc3)nc12 [Example 82, N-(3-(2-(2-aminopyrimidin-5-yl)-8-methoxy-4-morpholinoquinazolin-6-yl)-2,4-difIuorophenyl)-3-fluoropropane-1-sulfonamide] | 1 to 100 nM | – | 1 to 100 nM | 100 to 1000 nM | 1 to 100 nM
COc1cc(-c2c(F)ccc(NS(=O)(=O)CCCF)c2F)cc2c(N3CCOCC3)nc(-c3cnc(N)cc3C(F)(F)F)nc12 [Example 84, N-(3-(2-(6-amino-4-(trifluoromethyl)pyridin~3-yl)-8-methoxy-4-morpholinoquinazolin-6-yl)-2,4-difluorophenyl)-3-fluoropropane-1-sulfonamide] | – | 100 to 1000 nM | 1 to 100 nM | – | –
C[C@@H]1COCCN1c1nc(-c2cnc(N)cc2C(F)(F)F)nc2ccc(-c3cccc(NS(=O)(=O)CCCF)c3F)nc12 [Example 107, (R)-N-(3-(2-(6-amlno-4-(trifluoromethyl)pyridin-3-yl)-4-(3-methylmorpholino)pyrido[3,2-d]pyrimidin-6-yl)-2-fluorophenyl)-3-fluoropropane-1-sulfonamide] | – | 100 to 1000 nM | 1 to 100 nM | – | –
Cc1cc(N)ncc1-c1nc(N2CCOC[C@@H]2C)c2nc(-c3cccc(NS(=O)(=O)CCCF)c3F)ccc2n1 [Example 130, (S)-N-(3-(2-(6-amino-4-methylpyridin-3-yl)-4-(3-methylmorpholino)pyrido[3,2-d]pyrimidin-6-yl)-2-fluorophenyl)-3-fluoropropane-1-sulfonamide] | 100 to 1000 nM | 1 to 100 nM | 100 to 1000 nM | 100 to 1000 nM | –

Continued, values first:

IC50 (pERK in A375 cells) | IC50 (PI3Kα) | IC50 (B-RAFV600E) | IC50 (mTOR kinase) | IC50 (A375 cells) | SMILES
– | 100 to 1000 nM | 1 to 100 nM | 100 to 1000 nM | – | O=S(=O)(CCCF)Nc1cccc(-c2ccc3nc(-c4cccc5[nH]ncc45)nc(N4CCOCC4)c3n2)c1F [Example 89, N-(3-(2-(1H-indazol-4-yl)-4-morpholinopyrido[3,2-d]pyrimidin-6-yl)-2-fluorophenyl)-3-fluoropropane-1-sulfonamide]
– | 1 to 100 nM | 1 to 100 nM | 1 to 100 nM | – | O=S(=O)(CCCF)Nc1cccc(-c2ccc3nc(-c4cnc5[nH]ccc5c4)nc(N4CCOCC4)c3n2)c1F [Example 91, 3-fluoro-N-(2-fluoro-3-(4-morpholtno-2-(1H-pyrrolo[2,3-b]pyrldin-5-yl)pyrido[3,2-d]pyrimidin-6-yl)phenyl)propane-1-sulfonamide]
– | 1 to 100 nM | 1 to 100 nM | 100 to 1000 nM | – | Nc1ncc(-c2nc(N3CCOCC3)c3nc(-c4cccc(NS(=O)(=O)c5c(F)cccc5F)c4F)ccc3n2)cn1 [Example 98, N-(3-(2-(2-aminopyrimidin-5-yl)-4-morpholinopyrido[3,2-d]pyrimidin-6-yl)-2-fluorophenyl)-2,6-difluorobenzenesulfonamide]
– | 100 to 1000 nM | 1 to 100 nM | – | – | CCCNc1ncc(-c2nc(N3CCOCC3)c3nc(-c4cccc(NS(=O)(=O)CCCF)c4F)ccc3n2)cn1 [Example 112, 3-fluoro-N-(2-fluoro-3-(4-morpholino-2-(2-(propylamino)pyrimidin-5-yl)pyrido[3,2-d]pyrimidin-6-yl)phenyl)propane-1-sulfonamide]
– | 100 to 1000 nM | 1 to 100 nM | 100 to 1000 nM | – | CCCNc1ccc(-c2nc(N3CCOCC3)c3nc(-c4cccc(NS(=O)(=O)CCCF)c4F)ccc3n2)cn1 [Example 115, 3-fluoro-N-(2-fluoro-3-(4-morpholino-2-(6-(propylamino)pyridin-3-yl)pyrido[3,2-d]pyrimidin-6-yl)phenyl)propane-1-sulfonamide]
100 to 1000 nM | 1 to 100 nM | 1 to 100 nM | 100 to 1000 nM | – | CNc1ncc(-c2nc(N3CCOCC3)c3nc(-c4cccc(NS(=O)(=O)CCCF)c4F)ccc3n2)cn1 [Example 121, 3-fluoro-N-(2-fluoro-3-(2-(2-(methylamino)pyrimidin-5-yl)-4-morpholinopyrido[3,2-d]pyrimidin-6-yl)phenyl)propane-1-sulfonamide]
– | 100 to 1000 nM | 1 to 100 nM | – | – | CCNc1ncc(-c2nc(N3CCOCC3)c3nc(-c4cccc(NS(=O)(=O)CCCF)c4F)ccc3n2)cn1 [Example 122, N-(3-(2-(2-(ethylamino)pyrimidin-5-yl)-4-morpholinopyrido[3,2-d]pyrimidin-6-yl)-2-fluorophenyl)-3-fluoropropane-1-sulfonamide]
100 to 1000 nM | 1 to 100 nM | 100 to 1000 nM | 1 to 100 nM | – | C[C@H]1COCCN1c1nc(-c2ccc(N)nc2)nc2ccc(-c3cccc(NS(=O)(=O)CCCF)c3F)nc12 [Example 127, (S)-N-(3-(2-(6-aminopyridin-3-yl)-4-(3-methylmorpholino)pyrido[3,2-d]pyrimidin-6-yl)-2-fluorophenyl)-3-fluoropropane-1-sulfonamide]
100 to 1000 nM | 1 to 100 nM | 1 to 100 nM | 100 to 1000 nM | – | C[C@H]1COCCN1c1nc(-c2cnc(N)nc2)nc2ccc(-c3cccc(NS(=O)(=O)CCCF)c3F)nc12 [Example 128, (S)-N-(3-(2-(2-aminopyrimidin-5-yl)-4-(3-methylrnorpholino)pyrido[3,2-d]pyrimidin-6-yl)-2-fluorophenyl)-3-fluoropropane-1-sulfonamide]
100 to 1000 nM | 1 to 100 nM | 100 to 1000 nM | 100 to 1000 nM | – | Cc1nc(N)ncc1-c1nc(N2CCOC[C@@H]2C)c2nc(-c3cccc(NS(=O)(=O)CCCF)c3F)ccc2n1 [Example 131, (S)-N-(3-(2-(2-amino-4-methylpyrimidin-5-yl)-4-(3-methylmorpholino)pyrido[3,2-d]pyrimidin-6-yl)-2-fluorophenyl)-3-fluoropropane-1-sulfonamide]
